Key:
Assay type in all cases: cell-based
[1] = tested on: J774A.1 (Mouse BALB/c monocyte macrophage cell line) cells; test: LPS+ATP-induced IL-1β secretion inhibition in J774A.1 cells; settings: J774.A1, 1 μM compound, graded compared to taurodeoxycholic acid (positive control), read-out: IL-1β production inhibition grade
Description: (§1) To evaluate anti-inflammatory efficacy, an inflammatory response was induced in J774A.1 (Mouse BALB/c monocyte macrophage cell line) cells derived from mouse macrophages by LPS (lipopolysaccharide) and LPS+ATP (adenosine triphosphate), and the efficacy of taurine-bile acid derivatives to inhibit the production of inflammatory cytokines (IL-1β, TNF-α) was measured. After treating J774A.1 cells with 1 μM of a taurine-bile acid derivative, the degree to which the secretion of TNF-α among cytokines was suppressed was measured in the experimental group in which an inflammatory response was induced by LPS, and the extent to which IL-1β secretion among cytokines was suppressed was measured in the experimental group in which an inflammatory response was induced with LPS+ATP. The ability of taurine-bile acid derivatives to inhibit cytokine production was graded compared to taurodeoxycholic acid, a positive control. The grading criteria are A: over 100%, B: over 50% and under 100%, C: between 20% and under 50%, and D: under 20%.

[2] = tested on: U937 cells (human monocytic cell line); test: BzATP-induced IL-1β secretion inhibition in PMA-differentiated U937 cells; settings: U-937, U937 cells differentiated with PMA, read-out: IL-1β production inhibition grade (IC50)
Description: (§2) To evaluate anti-inflammatory efficacy, U937 cells (human monocytic cell line) were differentiated into macrophages using PMA (phorbol 12-myristate 13-acetate) and then induced an inflammatory response with Pam2CSK4 (Pam2CysSerLys4) or BzATP (2′(3′)—O-(4-Benzoylbenzoyl)adenosine 5′-triphosphate), the efficacy of taurine-bile acid derivatives in suppressing inflammatory cytokine (IL-1β, TNF-α) production was measured.
(§3) Using PMA, U937 cells were differentiated into macrophages, and the extent of TNF-α secretion inhibition was measured in an experimental group where taurine-bile acid derivatives was treated, followed by induction of inflammatory response with Pam2CSK4, and in the experimental group in which an inflammatory response was induced with BzATP, the extent to which IL-1β secretion among cytokines was suppressed was measured.
(§4) The ability of taurine-bile acid derivatives to inhibit cytokine production was expressed in terms of IC50 (μM) values. The standards for TNF α inhibition ability are A: less than 0.5, B: 0.5 to less than 1.0, C: 1.0 to less than 2.0, D: 2.0 or more, and the IL-1β inhibition ability grade standards are A: less than 0.05, B: 0.05 to less than 0.10, C: 0.10 or more and less than 0.20, D: 0.20 or more.

[3] = tested on: J774A.1 (Mouse BALB/c monocyte macrophage cell line) cells; test: LPS-induced TNF-α secretion inhibition in J774A.1 cells; settings: J774.A1, 1 μM compound, graded compared to taurodeoxycholic acid (positive control), read-out: TNF-α production inhibition grade
Description: as §1

[4] = tested on: U937 cells (human monocytic cell line); test: Pam2CSK4-induced TNF-α secretion inhibition in PMA-differentiated U937 cells; settings: U-937, U937 cells differentiated with PMA, read-out: TNF-α production inhibition grade (IC50)
Description: as §2, §3, §4

## C[C@H](CCC(=O)NCCOS(=O)(=O)O)[C@H]1CC[C@H]2[C@@H]3CC[C@@H]4C[C@H](O)CC[C@]4(C)[C@H]3C[C@H](O)[C@]12C [NC10007]
[1]
  inhibition at 1 µM: 50 to 100%
[2]
  IC50: < 50 nM
[3]
  inhibition at 1 µM: 50 to 100%
[4]
  IC50: ≥ 2000 nM

## C[C@H](CCC(=O)N1CCC(CCS(=O)(=O)O)CC1)[C@H]1CC[C@H]2[C@@H]3CC[C@@H]4C[C@H](O)CC[C@]4(C)[C@H]3C[C@H](O)[C@]12C [NC10008]
[1]
  inhibition at 1 µM: > 100%
[2]
  IC50: < 50 nM
[3]
  inhibition at 1 µM: > 100%
[4]
  IC50: < 500 nM

## C[C@H](CCC(=O)N1CCN(S(=O)(=O)O)CC1)[C@H]1CC[C@H]2[C@@H]3CC[C@@H]4C[C@H](O)CC[C@]4(C)[C@H]3C[C@H](O)[C@]12C [NC10009]
[1]
  inhibition at 1 µM: > 100%
[2]
  IC50: < 50 nM
[3]
  inhibition at 1 µM: > 100%
[4]
  IC50: < 500 nM

## C[C@H](CCC(=O)N1CCN(CCS(=O)(=O)O)CC1)[C@H]1CC[C@H]2[C@@H]3CC[C@@H]4C[C@H](O)CC[C@]4(C)[C@H]3C[C@H](O)[C@]12C [NC10010]
[1]
  inhibition at 1 µM: > 100%
[2]
  IC50: < 50 nM
[3]
  inhibition at 1 µM: > 100%
[4]
  IC50: < 500 nM

## C[C@H](CCC(=O)N1CCC(S(=O)(=O)O)CC1)[C@H]1CC[C@H]2[C@@H]3CC[C@@H]4C[C@H](O)CC[C@]4(C)[C@H]3C[C@H](O)[C@]12C [NC10011]
[1]
  inhibition at 1 µM: > 100%
[2]
  IC50: < 50 nM
[3]
  inhibition at 1 µM: > 100%
[4]
  IC50: < 500 nM

## C[C@H](CCC(=O)N1CCC(CCS(=O)(=O)O)CC1)[C@H]1CC[C@H]2[C@@H]3CC[C@@H]4C[C@H](O)CC[C@]4(C)[C@H]3CC[C@]12C [NC10012]
[1]
  inhibition at 1 µM: > 100%
[2]
  IC50: < 50 nM
[3]
  inhibition at 1 µM: > 100%
[4]
  IC50: < 500 nM

## C[C@H](CCC(=O)NCCOS(=O)(=O)O)[C@H]1CC[C@H]2[C@@H]3CC[C@@H]4C[C@H](O)CC[C@]4(C)[C@H]3CC[C@]12C [NC10013]
[1]
  inhibition at 1 µM: 50 to 100%
[2]
  IC50: 50 to 100 nM
[3]
  inhibition at 1 µM: < 20%
[4]
  IC50: 500 to 1000 nM

## C[C@H](CCC(=O)NCCCS(=O)(=O)O)[C@H]1CC[C@H]2[C@@H]3CC[C@@H]4C[C@H](O)CC[C@]4(C)[C@H]3CC[C@]12C [NC10014]
[1]
  inhibition at 1 µM: < 20%
[2]
  IC50: < 50 nM
[3]
  inhibition at 1 µM: < 20%
[4]
  IC50: 1000 to 2000 nM

## C[C@H](CCC(=O)Nc1ccc(S(=O)(=O)O)cc1)[C@H]1CC[C@H]2[C@@H]3CC[C@@H]4C[C@H](O)CC[C@]4(C)[C@H]3CC[C@]12C [NC10015]
[1]
  inhibition at 1 µM: < 20%
[2]
  IC50: < 50 nM
[3]
  inhibition at 1 µM: < 20%
[4]
  IC50: ≥ 2000 nM

## C[C@H](CCC(=O)N(CCS(=O)(=O)O)C1CCCCC1)[C@H]1CC[C@H]2[C@@H]3CC[C@@H]4C[C@H](O)CC[C@]4(C)[C@H]3CC[C@]12C [NC10016]
[1]
  inhibition at 1 µM: > 100%
[2]
  IC50: < 50 nM
[3]
  inhibition at 1 µM: > 100%
[4]
  IC50: < 500 nM

## CCN(CC)CCNC(=O)CC[C@@H](C)[C@H]1CC[C@H]2[C@@H]3CC[C@@H]4C[C@H](O)CC[C@]4(C)[C@H]3C[C@H](O)[C@]12C [NC10017]
[1]
  inhibition at 1 µM: > 100%
[2]
  IC50: < 50 nM
[3]
  inhibition at 1 µM: > 100%
[4]
  IC50: 500 to 1000 nM

## C[C@H](CCC(=O)NCCN1CCOCC1)[C@H]1CC[C@H]2[C@@H]3CC[C@@H]4C[C@H](O)CC[C@]4(C)[C@H]3C[C@H](O)[C@]12C [NC10018]
[1]
  inhibition at 1 µM: 20 to 50%
[2]
  IC50: 50 to 100 nM
[3]
  inhibition at 1 µM: 50 to 100%
[4]
  IC50: ≥ 2000 nM

## C[C@H](CCC(=O)N1CCN(C)CC1)[C@H]1CC[C@H]2[C@@H]3CC[C@@H]4C[C@H](O)CC[C@]4(C)[C@H]3C[C@H](O)[C@]12C [NC10019]
[1]
  inhibition at 1 µM: 20 to 50%
[2]
  IC50: ≥ 200 nM
[3]
  inhibition at 1 µM: < 20%
[4]
  IC50: 500 to 1000 nM

## C[C@H](CCC(=O)N(CCS(=O)(=O)O)Cc1ccccc1)[C@H]1CC[C@H]2[C@@H]3CC[C@@H]4C[C@H](O)CC[C@]4(C)[C@H]3C[C@H](O)[C@]12C [NC10022]
[1]
  inhibition at 1 µM: 50 to 100%
[2]
  IC50: 100 to 200 nM
[3]
  inhibition at 1 µM: 20 to 50%
[4]
  IC50: 500 to 1000 nM

## CC(C)N(CCS(=O)(=O)O)C(=O)CC[C@@H](C)[C@H]1CC[C@H]2[C@@H]3CC[C@@H]4C[C@H](O)CC[C@]4(C)[C@H]3C[C@H](O)[C@]12C [NC10024]
[1]
  inhibition at 1 µM: > 100%
[2]
  IC50: 50 to 100 nM
[3]
  inhibition at 1 µM: < 20%
[4]
  IC50: 1000 to 2000 nM

## C[C@H](CCC(=O)N1CCC[C@H](S(=O)(=O)O)C1)[C@H]1CC[C@H]2[C@@H]3CC[C@@H]4C[C@H](O)CC[C@]4(C)[C@H]3C[C@H](O)[C@]12C [NC10026]
[1]
  inhibition at 1 µM: > 100%
[2]
  IC50: < 50 nM
[3]
  inhibition at 1 µM: < 20%
[4]
  IC50: 1000 to 2000 nM

## C[C@H](CCC(=O)N1CCC[C@@H](S(=O)(=O)O)C1)[C@H]1CC[C@H]2[C@@H]3CC[C@@H]4C[C@H](O)CC[C@]4(C)[C@H]3C[C@H](O)[C@]12C [NC10027]
[1]
  inhibition at 1 µM: > 100%
[2]
  IC50: < 50 nM
[3]
  inhibition at 1 µM: < 20%
[4]
  IC50: 500 to 1000 nM

## C[C@H](CCC(=O)N1CC(S(=O)(=O)O)C1)[C@H]1CC[C@H]2[C@@H]3CC[C@@H]4C[C@H](O)CC[C@]4(C)[C@H]3C[C@H](O)[C@]12C [NC10028]
[1]
  inhibition at 1 µM: > 100%
[2]
  IC50: 50 to 100 nM
[3]
  inhibition at 1 µM: < 20%
[4]
  IC50: ≥ 2000 nM

## C[C@H](CCC(=O)NC(C)(C)CS(=O)(=O)O)[C@H]1CC[C@H]2[C@@H]3CC[C@@H]4C[C@H](O)CC[C@]4(C)[C@H]3C[C@H](O)[C@]12C [NC10029]
[1]
  inhibition at 1 µM: > 100%
[2]
  IC50: 50 to 100 nM
[3]
  inhibition at 1 µM: < 20%
[4]
  IC50: ≥ 2000 nM

## C[C@H](CCC(=O)N[C@H](Cc1ccccc1)CS(=O)(=O)O)[C@H]1CC[C@H]2[C@@H]3CC[C@@H]4C[C@H](O)CC[C@]4(C)[C@H]3C[C@H](O)[C@]12C [NC10031]
[1]
  inhibition at 1 µM: < 20%
[2]
  IC50: 50 to 100 nM
[3]
  inhibition at 1 µM: < 20%
[4]
  IC50: ≥ 2000 nM

## CC(C)[C@@H](CS(=O)(=O)O)NC(=O)CC[C@@H](C)[C@H]1CC[C@H]2[C@@H]3CC[C@@H]4C[C@H](O)CC[C@]4(C)[C@H]3C[C@H](O)[C@]12C [NC10032]
[1]
  inhibition at 1 µM: 50 to 100%
[2]
  IC50: 50 to 100 nM
[3]
  inhibition at 1 µM: < 20%
[4]
  IC50: ≥ 2000 nM

## CC(C)[C@H](CS(=O)(=O)O)NC(=O)CC[C@@H](C)[C@H]1CC[C@H]2[C@@H]3CC[C@@H]4C[C@H](O)CC[C@]4(C)[C@H]3C[C@H](O)[C@]12C [NC10033]
[1]
  inhibition at 1 µM: 50 to 100%
[2]
  IC50: 100 to 200 nM
[3]
  inhibition at 1 µM: < 20%
[4]
  IC50: 500 to 1000 nM

## C[C@H](CCC(=O)N[C@@H](CS(=O)(=O)O)c1ccccc1)[C@H]1CC[C@H]2[C@@H]3CC[C@@H]4C[C@H](O)CC[C@]4(C)[C@H]3C[C@H](O)[C@]12C [NC10035]
[1]
  inhibition at 1 µM: 50 to 100%
[2]
  IC50: ≥ 200 nM
[3]
  inhibition at 1 µM: < 20%
[4]
  IC50: 500 to 1000 nM

Reference: patent US20240391948A1, “NOVEL COMPOUND THAT INHIBITS TNF-ALPHA GENERATION AND INFLAMMASOME ACTIVITY AND PREPARATION METHOD THEREFOR” (SHAPERON INC., priority 2021, published 2024)
